# Reference: patent publication US11072598B2, “Somatostatin modulators and uses thereof” (CRINETICS PHARMACEUTICALS, INC., priority 2017, dated 2021)
# How the values were obtained:
# [1] = target: T1, human somatostatin receptor subtype 2 (Homo sapiens, UniProt P30874); assay: cAMP functional assay for SSTR2 agonists; assay type: cell-based; conditions: inhibition of cAMP activities via human SST2 receptor (SSTR2), CHO-K1 cells; read-out: EC50
# T1 construct: expressed in transfected cells
# Summary of the method: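 CHO-K1 cells stably expressing human SSTR2 were treated for 20 min at 37 °C with compound plus NKH477 (added as 1.6 μM) in HBSS with IBMX. Intracellular cAMP was measured by HTRF against a standard curve. EC50 values came from concentration-response curves.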
# [2] = target: T2, hSSTR4 (Homo sapiens, UniProt P31391); assay: inhibition of cAMP via hSSTR4; assay type: cell-based; conditions: selectivity for inhibition of cAMP via hSSTR2 vs. hSSTR4
# T2 construct: expressed in transfected cells
# Excerpt: General overview: All five SSTR subtypes are Gi coupled G-protein coupled receptors (GPCRs) that lead to decreases in intracellular cyclic AMP (cAMP) when activated by an agonist. Therefore, measurement of intracellular cAMP levels can be used to assess whether compounds of the invention are agonists of SSTR subtypes (John Kelly, Troy Stevens, W. Joseph Thompson, and Roland Seifert, Current Protocols in Pharmacology, 2005, 2.2.1-2.2). One example of an intracellular cAMP assay is described below. cAMP assay protocol:
# Four days prior to the assay, 5,000 Chinese hamster ovary cells (CHO-K1, ATCC #CCL-61) stably expressing the human somatostatin receptor subtype 2 are plated in each well of a 96-well tissue culture-treated plate in Ham's F12 growth media (ThermoFisher #10-080-CM) supplemented with 10% donor bovine serum (Gemini Bio-Products #100-506), 100 U/mL penicillin; 100 ug/mL streptomycin; 2 mM L-glutamine (Gemini Bio-Products #400-110) and 0.2 mg/mL hygromycin B (GoldBio #31282-04-9). The cells are cultured at 37° C., 5% CO2 and 95% humidity. On the day of the assay, the media is aspirated and the cells are treated with 50 μL of 1.6 μM NKH477 (Sigma #N3290) plus various dilutions of compounds of the invention in assay buffer [1× Hank's Balanced Salt Solution (ThermoFisher #SH3058802), 0.5 mM HEPES pH 7.4, 0.1% bovine serum albumin, 0.2 mM 3-Isobutyl-1-methylxanthine (IBMX, VWR #200002-790)]. The cells are incubated for 20 minutes at 37° C. (the final concentration of the compounds of the invention are typically 0-10,000 nM). The cells are treated with 50 μL of lysis buffer (HRTF cAMP kit, Cisbio). The lysate is transferred to 384-well plates and cAMP detection and visualization antibodies are added and incubated for 1-24 hours at room temperature. The time-resolved fluorescent signal is read with a Tecan M1000Pro multiplate reader. The intracellular cAMP concentrations are calculated by regression to a standard curve and are plotted vs. the concentration of the compounds of the invention and the EC50 of the compounds are calculated using standard methods. All data manipluations are in GraphPad Prism v6.
# T1 sequence (P30874 whole entry): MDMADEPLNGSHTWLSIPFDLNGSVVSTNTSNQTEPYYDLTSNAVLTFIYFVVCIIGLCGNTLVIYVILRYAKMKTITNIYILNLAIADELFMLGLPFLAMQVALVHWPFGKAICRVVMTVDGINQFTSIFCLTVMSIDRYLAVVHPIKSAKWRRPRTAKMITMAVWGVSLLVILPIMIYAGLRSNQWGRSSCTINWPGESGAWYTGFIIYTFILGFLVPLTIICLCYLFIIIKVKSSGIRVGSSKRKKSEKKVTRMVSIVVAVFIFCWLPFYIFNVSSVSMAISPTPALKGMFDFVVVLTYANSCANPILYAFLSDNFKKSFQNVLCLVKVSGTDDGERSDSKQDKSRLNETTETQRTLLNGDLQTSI
# T2 sequence (P31391 whole entry): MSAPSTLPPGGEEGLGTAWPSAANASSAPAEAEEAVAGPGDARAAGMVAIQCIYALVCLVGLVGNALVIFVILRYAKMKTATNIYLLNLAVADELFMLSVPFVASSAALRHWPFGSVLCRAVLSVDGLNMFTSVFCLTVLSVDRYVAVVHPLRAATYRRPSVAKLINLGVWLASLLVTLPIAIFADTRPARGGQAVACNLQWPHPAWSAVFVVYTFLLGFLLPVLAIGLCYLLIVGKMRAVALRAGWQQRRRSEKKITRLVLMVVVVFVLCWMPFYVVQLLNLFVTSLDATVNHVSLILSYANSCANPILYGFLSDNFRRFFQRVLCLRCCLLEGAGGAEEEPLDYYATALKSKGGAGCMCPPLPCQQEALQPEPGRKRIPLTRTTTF
EC50 [1] [nM],hSST4/hSST2 (ratio) [2],Structure (SMILES)
< 10,a (above 50),"Cc1cc(F)cc(-c2cnc(N)c(-c3nc4cc(F)c(F)cc4n3C)c2N2CCC(N)CC2)c1 [Compound 1-57, 4-(4-aminopiperidin-1-yl)-3-(5,6-difluoro-1-methyl-1H-1,3-benzodiazol-2-yl)-5-(3-fluoro-5-methylphenyl)pyridin-2-amine]"
< 10,a (above 50),"CCNc1ncc(-c2cc(C)cc(F)c2)c(N2CCC(N)CC2)c1-c1nc2cc(Cl)ccc2[nH]1 [Compound 1-30, 4-(4-aminopiperidin-1-yl)-3-(5-chloro-1H-1,3-benzodiazol-2-yl)-N-ethyl-5-(3-fluoro-5-methylphenyl)pyridin-2-amine]"
< 10,c (between 2.5 and 15),"COc1cc(F)cc2[nH]c(-c3c(N)ncc(-c4cc(C)cc(F)c4)c3N3CCC(N)CC3)nc12 [Compound 1-58, 4-(4-aminopiperidin-1-yl)-3-(6-fluoro-4-methoxy-1H-1,3-benzodiazol-2-yl)-5-(3-fluoro-5-methylphenyl)pyridin-2-amine]"
< 10,a (above 50),"CCNc1ncc(-c2cc(C)cc(F)c2)c(N2CCC(N)CC2)c1-c1nc2cc(F)c(F)cc2[nH]1 [Compound 1-50, 4-(4-aminopiperidin-1-yl)-3-(5,6-difluoro-1H-1,3-benzodiazol-2-yl)-N-ethyl-5-(3-fluoro-5-methylphenyl)pyridin-2-amine]"
< 10,a (above 50),"COc1ncc(-c2cc(C)cc(F)c2)c(N2CCC(N)CC2)c1-c1nc2cc(F)ccc2[nH]1 [Compound 2-1, 1-[3-(5-fluoro-1H-1,3-benzodiazol-2-yl)-5-(3-fluoro-5-methylphenyl)-2-methoxypyridin-4-yl]piperidin-4-amine]"
< 10,a (above 50),"CNc1ncc(-c2cc(C)cc(F)c2)c(N2CCC(N)CC2)c1-c1nc2cc(F)c(F)cc2[nH]1 [Compound 1-55, 4-(4-aminopiperidin-1-yl)-3-(5,6-difluoro-1H-1,3-benzodiazol-2-yl)-5-(3-fluoro-5-methylphenyl)-N-methylpyridin-2-amine]"
< 10,a (above 50),"Cc1cc(F)cc(-c2cnc(N)c(-c3nc4cc(OC(F)(F)F)ccc4[nH]3)c2N2CCC(N)CC2)c1 [Compound 1-14, 4-(4-aminopiperidin-1-yl)-5-(3-fluoro-5-methylphenyl)-3-[5-(trifluoromethoxy)-1H-1,3-benzodiazol-2-yl]pyridin-2-amine]"
< 10,a (above 50),"COc1cc(F)cc2nc(-c3c(N4CC(F)C4)ncc(-c4cc(C)cc(F)c4)c3N3CCC(N)CC3)[nH]c12 [Compound 4-7, 1-[3-(5-fluoro-7-methoxy-1H-1,3-benzodiazol-2-yl)-5-(3-fluoro-5-methylphenyl)-2-(3-fluoroazetidin-1-yl)pyridin-4-yl]piperidin-4-amine]"
< 10,a (above 50),"COc1ncc(-c2cc(C)cc(F)c2)c(N2CCC(N)CC2)c1-c1nc2cc(Cl)ccc2[nH]1 [Compound 2-2, 1-[3-(5-chloro-1H-1,3-benzodiazol-2-yl)-5-(3-fluoro-5-methylphenyl)-2-methoxypyridin-4-yl]piperidin-4-amine]"
< 10,b (between 15 and 50),"CCn1c(-c2c(N)ncc(-c3cc(C)cc(F)c3)c2N2CCC(N)CC2)nc2cc(F)c(F)cc21 [Compound 1-5, 4-(4-aminopiperidin-1-yl)-3-(1-ethyl-5,6-difluoro-1H-1,3-benzodiazol-2-yl)-5-(3-fluoro-5-methylphenyl)pyridin-2-amine]"
< 10,a (above 50),"CCNc1ncc(-c2cc(C)cc(F)c2)c(N2CCC(N)CC2)c1-c1nc2cc(F)cc(F)c2[nH]1 [Compound 1-49, 4-(4-aminopiperidin-1-yl)-3-(5,7-difluoro-1H-1,3-benzodiazol-2-yl)-N-ethyl-5-(3-fluoro-5-methylphenyl)pyridin-2-amine]"
< 10,b (between 15 and 50),"COc1ccc2[nH]c(-c3c(N)ncc(-c4cc(C)cc(F)c4)c3N3CCC(N)CC3)nc2c1 [Compound 1-8, 4-(4-aminopiperidin-1-yl)-5-(3-fluoro-5-methylphenyl)-3-(5-methoxy-1H-1,3-benzodiazol-2-yl)pyridin-2-amine]"
< 10,a (above 50),COCCNc1ncc(-c2cc(C)cc(F)c2)c(N2CCC(N)CC2)c1-c1nc2c(F)cc(F)cc2[nH]1 [Compound 1-56]
< 10,c (between 2.5 and 15),"Cc1cc(F)cc(-c2cnc(N)c(-c3nc4cc(F)cc(OCC#N)c4[nH]3)c2N2CCC(N)CC2)c1 [Compound 1-74, 2-({2-[2-amino-4-(4-aminopiperidin-1-yl)-5-(3-fluoro-5-methylphenyl)pyridin-3-yl]-5-fluoro-1H-1,3-benzodiazol-7-yl}oxy)acetonitrile]"
< 10,c (between 2.5 and 15),"COc1cc(F)cc2nc(-c3c(C)ncc(-c4cc(C)cc(F)c4)c3N3CCC(N)CC3)[nH]c12 [Compound 2-15, 1-[3-(5-fluoro-7-methoxy-1H-1,3-benzodiazol-2-yl)-5-(3-fluoro-5-methylphenyl)-2-methylpyridin-4-yl]piperidin-4-amine]"
< 10,a (above 50),"CNc1ncc(-c2cc(C)cc(F)c2)c(N2CCC(N)CC2)c1-c1nc2cc(Cl)ccc2[nH]1 [Compound 1-28, 4-(4-aminopiperidin-1-yl)-3-(5-chloro-1H-1,3-benzodiazol-2-yl)-5-(3-fluoro-5-methylphenyl)-N-methylpyridin-2-amine]"
< 10,a (above 50),"COc1ccc2[nH]c(-c3c(OC)ncc(-c4cc(C)cc(F)c4)c3N3CCC(N)CC3)nc2c1 [Compound 2-3, 1-[5-(3-fluoro-5-methylphenyl)-2-methoxy-3-(5-methoxy-1H-1,3-benzodiazol-2-yl)pyridin-4-yl]piperidin-4-amine]"
< 10,a (above 50),"Cc1cc(F)cc(-c2cnc(N3CCOCC3)c(-c3nc4cc(F)cc(F)c4[nH]3)c2N2CCC(N)CC2)c1 [Compound 4-8, 1-[3-(5,7-difluoro-1H-1,3-benzodiazol-2-yl)-5-(3-fluoro-5-methylphenyl)-2-(morpholin-4-yl)pyridin-4-yl]piperidin-4-amine]"
< 10,a (above 50),"CNc1ncc(-c2cc(C)cc(F)c2)c(N2CCC(N)CC2)c1-c1nc2cc(Cl)cc(F)c2[nH]1 [Compound 1-75, 4-(4-aminopiperidin-1-yl)-3-(5-chloro-7-fluoro-1H-1,3-benzodiazol-2-yl)-5-(3-fluoro-5-methylphenyl)-N-methylpyridin-2-amine]"
< 10,a (above 50),"Cc1cc(F)cc(-c2cnc(N)c(-c3nc4cc(Cl)cc(F)c4[nH]3)c2N2CCC(N)CC2)c1 [Compound 1-54, 4-(4-aminopiperidin-1-yl)-3-(5-chloro-7-fluoro-1H-1,3-benzodiazol-2-yl)-5-(3-fluoro-5-methylphenyl)pyridin-2-amine]"
< 10,c (between 2.5 and 15),"Cc1cc(F)cc(-c2cnc(N)c(-c3nc4cccc(C)c4[nH]3)c2N2CCC(N)CC2)c1 [Compound 1-10, 4-(4-aminopiperidin-1-yl)-5-(3-fluoro-5-methylphenyl)-3-(7-methyl-1H-1,3-benzodiazol-2-yl)pyridin-2-amine]"
